Results on 1 compound are retold here after publication PMC11843658 (Journal of Enzyme Inhibition and Medicinal Chemistry, 2025).

In one assay the test system is OVCAR-3 cells. In words: CCK8 assay, OVCAR-3 ovarian cancer cells. The assay is classed as cell-based. Conditions: Homo sapiens, 10 μM, 48 h, read-out: cell viability rate. As for the experimental part:
(§1) C42B, PC3, Caco-2, HepG2, MCF7, HL-60, 8505 C, OVCAR-3, and A549 were cultured to screen the broad-spectrum antiproliferative activity of compound 14. For above cell lines, three thousand cells per well were seeded in the 96-well plate and treated by compound 14 for 48 or 72 h at different concentrations (0, 5, 10, and 20 μM). In addition, HepG2, HEP3B, HUH6, and HUH7 were cultured to screen its antiproliferative activity against liver cancer cell lines. For these liver cancer cell lines, two thousand cells per well were seeded in the 96-well plate and treated by compound 14 for 48 h at different concentrations (0, 0.625, 1.25, 2.5, and 5 μM). Then, 10 μl of CCK8 was added into each well and cells were incubated in a humidified atmosphere of 5% CO2 at 37 °C for 4 h. The 96-well plate was measured with a microplate reader (Bio-Tek, San Diego, CA) at a wavelength of 450 nm to calculate IC50 values.

For the next assay, the system named is HL-60 cells. In words: CCK8 assay, HL-60 leukaemia cells. The assay is classed as cell-based. To be noted: Homo sapiens, 10 μM, 48 h, read-out: cell viability rate. The protocol:
as §1
For orientation: Tetrazolium assays rely on reduction of a dye to a coloured formazan, in cell work by metabolically active cells.

For a further assay, the system named is C42B cells. Description: CCK8 assay, C42B prostate cancer cells. To be noted: Homo sapiens, 10 μM, 48 h, read-out: cell viability rate. The assay is classed as cell-based. As for the experimental part:
as §1

A further assay deals with Caco-2 cells. In words: CCK8 assay, Caco-2 colon cancer cells. The assay is classed as cell-based. To be noted: Homo sapiens, 10 μM, 48 h, read-out: cell viability rate. The protocol: as §1
For assay [1], the system named is E-cadherin, N-cadherin, and Vimentin in HepG2 cells. In words: Western blotting of epithelial–mesenchymal transition-related proteins. It counts as cell-based, Human. As for the experimental part: Compound 14 at different concentrations (0, 0.5, 1, and 2 μM) was added into cancer cells solution and incubated for 48 h. Total protein was isolated from cells using RIPA buffer (Servicebio, Wuhan, China). An amount of […] of total protein were separated by sodium dodecyl sulphate polycrylamide gel electrophoresis and transferred to PVDF membranes. 5% non-fat milk (Servicebio, Wuhan, China) was used to block PVDF membranes and incubated with primary antibody for 12 h at 4 °C. Then, PVDF membranes were washed by TBST buffer (Servicebio, Wuhan, China) and incubated with secondary antibody at room temperature for 2 h. The enhanced chemiluminescence kit (Servicebio, Wuhan, China) was used to visualise immunoreactive bands. H3, GAPDH, Vimentin, N-cadherin, and E-cadherin as antibodies were purchased from Servicebio (Wuhan, China). Catalogue numbers of H3, GAPDH, Vimentin, N-cadherin, and E-cadherin as antibodies in Servicebio are GB11102, GB15004, GB11192, GB12135, and GB12868, respectively. H3K4me1 and H3K4me2 were obtained from Proteintech Group, Inc (Wuhan, China). Catalogue numbers of H3K4me1 and H3K4me2 as antibodies in Proteintech Group are 91289 and 39679, respectively.
(In general: A western blot detects proteins with antibodies after separation by electrophoresis.)

In the next assay the target is T1, MAO-B (Homo sapiens, UniProt P27338).
T1 construct: purchased Servicebio (Wuhan, China)
T1 sequence (P27338 whole entry, species assumed): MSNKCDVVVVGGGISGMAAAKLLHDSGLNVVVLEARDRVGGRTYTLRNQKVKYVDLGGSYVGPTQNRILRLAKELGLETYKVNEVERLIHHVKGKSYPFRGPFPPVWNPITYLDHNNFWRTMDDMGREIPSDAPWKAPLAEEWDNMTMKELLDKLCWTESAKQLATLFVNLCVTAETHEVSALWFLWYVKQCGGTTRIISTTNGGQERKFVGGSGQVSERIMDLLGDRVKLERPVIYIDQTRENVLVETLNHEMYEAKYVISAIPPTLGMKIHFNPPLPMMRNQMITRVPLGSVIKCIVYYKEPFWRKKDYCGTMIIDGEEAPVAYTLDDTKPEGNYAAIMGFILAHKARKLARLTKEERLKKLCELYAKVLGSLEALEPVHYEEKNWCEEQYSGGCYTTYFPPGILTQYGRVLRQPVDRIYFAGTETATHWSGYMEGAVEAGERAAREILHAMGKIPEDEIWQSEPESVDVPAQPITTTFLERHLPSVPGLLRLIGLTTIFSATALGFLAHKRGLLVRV
Description: Inhibitory activity against MAO-B (kynuramine). It counts as biochemical. Conditions: tested at 250, 500, and 1000 nM. As for the experimental part: In order to analyse the enzymatic selectivity of compound 14, MAO-A/B was purchased from Servicebio (Wuhan, China). MAO-A was dissolved in phosphate buffer (0.1 M, pH = 7.4) to get MAO-A enzymatic buffer with a concentration of 0.006 mg/ml. MAO-B was also dissolved in phosphate buffer (0.1 M, pH = 7.3) to get MAO-B enzymatic buffer with a concentration of 0.015 mg/mL. Kynuramine dihydrochloride (Servicebio, Wuhan, China) was used to get the assay buffer with a concentration of 40 μM for MAO-A and 20 μM for MAO-B. An aliquot of 97 μl of assay buffer and 3 μl of compound 14 at different concentrations (250, 500, and 1000 nM) were added into each well on the 96-well black plate. The plate was incubated at 37 °C for 20 min, and 80 μl of 2 N sodium hydroxide was added into each well to stop the reaction. The fluorescence of each well was measured using a microplate reader (Agilent Technologies Inc., CA) with an excitation at 310 nm and an emission at 380 nm.

A further assay concerns HUH7 cells. In words: CCK8 assay, HUH7 liver cancer cells. It counts as cell-based. To be noted: Homo sapiens, Huh-7, CCK8, 48 h, 0-5 μM, read-out: IC50, antiproliferative activity. As for the experimental part:
as §1

A further assay relates to HepG2 cells. Description: Xenograft study, HepG2 cells in nude mice. The assay is classed as in vivo, BALB/c nude mice. To be noted: 60 mg/kg by gavage every day for 21 days. As for the experimental part:
Tumorigenesis in nude mice could stimulate the growth process of human tumours in the body, and could be used to develop and evaluate the effectiveness and safety of anti-cancer candidates. Therefore, xenograft studies in nude mice were performed to evaluate anticancer effects of compound 14. Animals were treated according to the protocols established by the ethics committee of The Fourth Clinical College of Xinxiang Medical University. The in vivo experiments were carried out in accordance with the approved guidelines and approved by the ethics committee of The Fourth Clinical College of Xinxiang Medical University. The number of ethics approvals is XMU-2024–01-03. All authors have adhered to the ARRIVE guidelines (https://arriveguidelines.org/). BALB/c nude mice were purchased from Beijing Huafukang Biotechnology Co., LTD (Beijing, China), and fifteen mice were used in this study (aged 6–7 weeks and weighing 20–30 g). Before the animal experiments, all nude mice were given a week to adjust to the clean, hygienic and specific-pathogen-free environment. All nude mice were taken care of instainless steel cages with a constant temperature of 60% humidity, 25 °C and a 12/12 light/dark cycle. Nude mice were fed with refreshing water and nourishing food everyday.
Then, nude mice were anaesthetised with 2% isoflurane and 0.3 l/min of oxygen by the small animal anaesthesia machine (Beijing Yi Zejia Technology Co., LTD, Beijing, China). 3 × 10^5 human liver cancer HepG2 cells were subcutaneously injected in the right armpit of mice. Until the volume of tumours reached 60–100 mm^3, all mice were randomly divided into three groups and each group had five nude mice. An amount of 60 mg/kg of compound 14, 10 mg/kg of seclidemstat and water as the control group were given by gavage every day for 21 days. Weight of mice and tumour volume were measured every 3 d. All nude mice in this xenograft studies were performed euthanizing procedures using a carbon dioxide euthanasia chamber (Shanghai Yuyan Instruments Co., Ltd, Shanghai, China). The flow rate of carbon dioxide was adjusted at 20% of the volume of the euthanasia chamber per minute. Once nude mice were unconscious, the flow rate was increased to 100% of the euthanasia chamber volume per minute. Death was confirmed by immobility, non-breathing and pupil enlargement. Tumours form BALB/c nude mice were isolated and weighed.

In general, viability refers to a read-out of living cells in per cent, often relative to untreated cells. Broadly, the IC50 is the point on the concentration scale where inhibition reaches its midpoint.

Some results are limits rather than exact numbers.

As for `COc1ccc(CN(C(=O)CCN2C(=O)CCCC2=O)c2cc(OC)c(OC)c(OC)c2)cc1` [Compound 14, 3-(2,6-dioxopiperidin-1-yl)-N-(4-methoxybenzyl)-N-(3,4,5-trimethoxyphenyl)propanamide], the viability at 10 µM with OVCAR-3 cells was determined as 80.7%; in the assay on HL-60 cells, 35.7%; in the assay on C42B cells it was 88%; with Caco-2 cells, 72.3%. The “expression level of E-cadherin” value in assay [1] was “increases the expression level of E-cadherin”. Further, the “expression levels of N-cadherin and Vimentin” value in assay [1] was “decreases the expression levels of N-cadherin and Vimentin”. Further, the IC50 at MAO-B was > 1 µM; with HUH7 cells, 4.37 µM. Besides, the “growth of subcutaneous tumours” value with HepG2 cells (nude mice bearing HepG2 cells) was “inhibited the growth of subcutaneous tumours”. In addition, the “tumour growth inhibition rate” value with HepG2 cells (tumour weight, nude mice bearing HepG2 cells) amounted to 50.3%. Besides, in the assay with HepG2 cells (vs control group), the tumour volume entry is “significantly lower than that in control group”. In the assay on HepG2 cells (vs control group), the tumour weight result is on record as “lower than that of control group”.
